Results: US7855228B2, “Antibiotics targeting MreB” (The Board of Trustees of the Leland Stamford Junior …, priority 2005, dated 2010)
≈ marks a conversion by molar mass, not a printed value. Like-named read-outs stand apart in the source and are kept apart here.

Key:
Format in all cases: cell-based
[1] = system: E. coli JE1011, JST975; experiment: Paper disk growth inhibitory zone; conditions: paper disk φ 8 mm, 200 μg of A22, 24 h, 37° C.
Description: Isolation of A22-resistant mutant Our strategy for identifying the molecular target(s) of A22 involved isolating resistant mutants which grow in the presence of concentrations of A22 that inhibit growth of the parent strain. After 24 h incubation at 37° C., E. coli strains such as JE1011 formed a turbid growth inhibitory zone (φ 12 mm) around a paper disk (φ 8 mm) containing 200 μg of A22. To identify a more suitable parent strain for our selection, we screened for a more drug-sensitive strain that would form clear growth inhibitory zones under similar incubation conditions.
Bacterial strains used E. coli K-12 strains JE1011 (F^− leuB thr trp his thy ara lac xyl mtl rpsL tonA), JST975 (the same as JE1011 but ponB) (Tamaki et al. 1977), W3110 (wild-type), MG1655 (wild-type), DV14 (F^− metB1 panD2 panF1 zhc-12::Tn10) (Vallari & Rock 1985), CAG12149 (F^− zbd-601::Tn10) (Singer et al. 1989), AT1325-678 (F^− lip-9 thi-1 his-4 purB15 proA2 mtl-1 Δmre678) (Wachi et al. 1987) and JM109 [recA1 endA1 gyrA96 thi-1 hsdR17 Δ(lac-proAB) supE44 relA1 F′ (traD36 proAB^+ lacI^q lacZΔM15)] (Yanisch-Perron et al. 1985) were used in this study. Cells were grown in Lennox (L) medium (1% Bactopeptone, 0.5% yeast extracts, 0.5% NaCl, 0.1% glucose, pH 7.2, supplemented with 20 μg/ml thymine). For the growth of AT1325-678, 0.1 μg/ml lipoic acid was supplemented. […]

[2] = system: Caulobacter crescentus; experiment: Caulobacter growth (optical density, doubling time); conditions: for Doubling in A22 in WT Genetic Background / Doubling Time in A22 / Doubling in A22 when Replaced by WT mreB: cell mass over 6 hr, A660
Description: Similar volumes of solvent (methanol) alone had no effect on growth. […] This rapid effect on cell growth could be due to a disruption in cell wall deposition or could reflect a secondary response to some other cellular perturbation.
MreB Is the Direct Target of A22. To identify the cellular target(s) of A22, we carried out a screen for A22-resistant mutants by growing large numbers of Caulobacter on plates containing 10 μg/ml A22. We independently isolated 20 mutants that stably and repeatedly formed colonies on plates containing 10 μg/ml A22 and grew in liquid culture containing 10 μg/ml A22. Since MreB was proposed as a possible target of A22, we PCR-amplified and sequenced the mreB gene in the 20 A22-resistant strains and a control wild-type strain. Each of the 20 A22-resistant strains contained a single missense point mutation in its mreB gene, whereas the wild-type A22-sensitive strain had no mreB point mutations (Table 2). Though isolated independently, the 20 strains had only 7 different point mutations: one specific point mutation was found in 10 of the strains, another specific point mutation was found in 5 of the strains, and 5 additional point mutations were found in 1 strain each. Since all 7 of these mutations affected amino acids that are conserved between Caulobacter MreB and Thermotoga maritima MreB, they could be mapped onto the solved three-dimensional structure of T. maritima MreB. […] All of the resistant strains grow at a similar rate in rich PYE medium (w115 min/doubling), which is slower than wild-type cells without drug (87 min/doubling), but they are largely unaffected by the presence of A22 (w115 min/doubling) (Table 2).
Bacterial Strains and Growth Conditions. Caulobacter crescentus strains CB15N and derivatives were grown in PYE or M2G medium or agar plates supplemented with the appropriate combinations of antibiotics, glucose, xylose, A22, and the A22 diluent, methanol. The FROS strains labeled at both the origin and CC2943, CC3300, CC3656, and CC0091, or singly labeled at CC0786, and CC3192 were generated and characterized in a previous study, where they were referred to as MPO40, MPO53, MPO7, MPO133, MP156, and MP82, respectively. Growth and analysis conditions for the mreB depletion, holB:gfp, and FROS strains have been previously described. The methods for ΦCr30-mediated generalized phage transduction and swarmer cell isolation by Percoll density gradient centrifugation have also been described. Washes were performed by micro centrifugation at 8000 g. Twenty independent A22-resistant Caulobacter mutants were isolated by growing 20 single CB15N colonies overnight and plating 10^9 cells per culture on PYE plates containing 10 μg/ml A22. One A22-resistant colony from each plate was isolated, retested, and characterized. To sequence the mreB gene from these strains, mreB was PCR-amplified and the resulting band was gel-purified (Qiagen) and sequenced. Overlay PCR mutagenesis was used to introduce the […] point mutation (A509G) into the previously described PxyI:gfp:mreB construct.

[3] = system: E. coli MG1655; experiment: Determination of minimum inhibitory concentration (MIC); conditions: Escherichia coli, read-out: MIC E. coli
How it was run: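 Two-fold serial agar dilution on L agar and also on Mueller Hinton agar (pH 7.3); 10 µl of stationary-phase culture diluted in 0.85% NaCl to 10^6 cells/ml spotted per plate. MIC taken as lowest concentration inhibiting growth.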

N=C(N)SCc1ccc(Cl)c(Cl)c1 [Compound 1, S-(3,4-dichlorobenzyl)isothiourea]
Growth inhibitory zone (turbid) ([1]; JE1011): 12 mm | Growth inhibitory zone (clear) ([1]; JST975 (ponB)): 32 mm | Effect on growth of Caulobacter cultures ([2]; 0.1-100 μg/ml, up to 6 hr): slowed growth in a dose-dependent fashion | Doubling in A22 in WT Genetic Background ([2]; mreB allele: A325P): 115′ | Doubling in A22 in WT Genetic Background ([2]; mreB allele: D16G): 112′ | Doubling in A22 in WT Genetic Background ([2]; mreB allele: D192G): 116′ | Doubling in A22 in WT Genetic Background ([2]; mreB allele: L23R): 120′ | Doubling in A22 in WT Genetic Background ([2]; mreB allele: None (wt)): 156′ | Doubling in A22 in WT Genetic Background ([2]; mreB allele: P112S): 119′ | Doubling in A22 in WT Genetic Background ([2]; mreB allele: T167A): 105′ | Doubling in A22 in WT Genetic Background ([2]; mreB allele: V324A): 115′ | Doubling Time in A22 ([2]; mreB mutation: A325P): 116′ | Doubling Time in A22 ([2]; mreB mutation: D16G): 115′ | Doubling Time in A22 ([2]; mreB mutation: D192G): 118′ | Doubling Time in A22 ([2]; mreB mutation: L23R): 121′ | Doubling Time in A22 ([2]; mreB mutation: None (wt)): 148′ | Doubling Time in A22 ([2]; mreB mutation: P112S): 118′ | Doubling Time in A22 ([2]; mreB mutation: T167A): 110′ | Doubling Time in A22 ([2]; mreB mutation: V324A): 113′ | Time after A22 treatment at which a decline in growth rate was observed ([2]; rich PYE medium): 30 min | Doubling in A22 when Replaced by WT mreB ([2]; strain: A325P): 144′ | Doubling in A22 when Replaced by WT mreB ([2]; strain: D16G): 150′ | Doubling in A22 when Replaced by WT mreB ([2]; strain: None (wt)): 145′ | Doubling in A22 when Replaced by WT mreB ([2]; strain: P112S): 146′ | Doubling in A22 when Replaced by WT mreB ([2]; strain: T167A): 148′ | Doubling in A22 when Replaced by WT mreB ([2]; strain: V324A): 142′ | MIC ([3]; MG1655, Example 2, methods as in Example 1): 3.13 µg/mL (≈ 13.3 µM) | MIC ([3]; MG1655, Table 1, E. coli MG1655): 3.13 µg/mL (≈ 13.3 µM)
